Test results: publication PMC6264874, “A single class of ARF GTPase activated by several pathway-specific ARF-GEFs regulates essential membrane traffic in Arabidopsis” (PLoS Genetics, 2018)

Assays:
[1] = target: T1, ARFA (ARFB1b), residues 18-192 (Arabidopsis thaliana, UniProt Q9LFJ7); assay: tryptophan fluorescence nucleotide exchange (ex […] nm, em […] nm); assay type: binding; settings: 1 uM GDP-loaded ARF, 66 uM GTPgammaS, 50 nM SEC7 domain of BIG5 (residues 587-791), 10 mM MgCl2, pH 7.5, 37 C
T1 construct: N-terminally truncated (residues 18-192), 6xHis-tagged (pET30a), expressed in E. coli BL21(DE3), Ni-NTA purified
T1 sequence (Q9LFJ7 18-192): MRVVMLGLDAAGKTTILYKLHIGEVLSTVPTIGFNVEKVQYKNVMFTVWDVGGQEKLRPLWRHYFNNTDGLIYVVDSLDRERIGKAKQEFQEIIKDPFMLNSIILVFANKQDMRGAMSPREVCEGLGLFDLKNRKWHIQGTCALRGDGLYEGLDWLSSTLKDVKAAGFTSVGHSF

[2] = target: T2, ARF1 (ARFA1c), residues 18-181 (Arabidopsis thaliana, UniProt P36397); assay: as above; assay type: binding; settings: 1 uM GDP-loaded ARF, 66 uM GTPgammaS, 50 nM SEC7 domain of BIG5 (residues 587-791), 10 mM MgCl2, pH 7.5, 37 C
T2 construct: N-terminally truncated (residues 18-181), 6xHis-tagged (pET30a), expressed in E. coli BL21(DE3), Ni-NTA purified
T2 sequence (P36397 18-181): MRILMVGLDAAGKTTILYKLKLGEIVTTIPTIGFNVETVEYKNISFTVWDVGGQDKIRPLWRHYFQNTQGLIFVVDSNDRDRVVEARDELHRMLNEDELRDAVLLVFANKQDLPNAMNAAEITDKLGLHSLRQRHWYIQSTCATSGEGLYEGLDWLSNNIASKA

Nc1nc2c(ncn2[C@@H]2O[C@H](COP(=O)(O)OP(=O)(O)OP(O)(O)=S)[C@@H](O)[C@H]2O)c(=O)[nH]1 [GTPγS]
tryptophan fluorescence nucleotide exchange (ex 298 nm, em 340 nm) [1]: The SEC7 domain of BIG5 catalyzed GDP-GTP exchange on ARF1(wt), ARFA(wt) and ARFA-Q71L
tryptophan fluorescence nucleotide exchange (ex 298 nm, em 340 nm) [2]: The SEC7 domain of BIG5 catalyzed GDP-GTP exchange on ARF1(wt), ARFA(wt) and ARFA-Q71L
